From patent US10357474B2, “Preparation and use of a composition for prevention and mitigation of the effects of radiation” (BioVentures, LLC, priority 2013, dated 2019)

How the values were obtained:
[1] = tested on: H9c2 heart cardiomyocytes; test: Morphology assay of cardiomyocytes exposed to H2O2; type: cell-based, rat
Protocol: FIG. 3 is a set of photographs showing the cardiomyocytes after the indicated treatments. H9C2 heart cardiomyocytes were treated with 5 μM DT3 or 5 μM DG-3 or vehicle control (DMSO) overnight. Cells were then exposed to H2O2 for 4 h. Morphological changes were recorded under an inverted microscope.
(§1) DG-3, provided herein, is a standardized extract derived from annatto seeds that contains only […] and GT3. Because radiation-induced mitochondrial damage and oxidative stress impacts several critical biologic parameters such as DNA damage repair and stem cell fate, in this research we have compared the effects of DT3, GT3, and DG-3 against radiation induced mitochondrial dysfunction and oxidative stress. […] Furthermore, the same treatment preserved the cell viability and mitochondrial respiration in these cells when followed by oxidative insult via H2O2 treatment. Methods of making DG-3 and methods of using these compositions are provided herein.
H9c2 heart cardiomyocytes were treated with 5 μM DT3 or 5 μM DG-3 or vehicle control (DMSO) overnight. Cells were then exposed to 100 or 200 μM H2O2 for 4 h. Morphological changes were recorded under an inverted microscope.

[2] = tested on: Wistar rat liver microsomes; test: Inhibition of TBHP induced lipid peroxidation in rat liver microsomes; type: biochemical; details: rat liver microsomes 1 mg/ml, 1 h pre-incubation at 37° C., 200 μM TBHP for 30 min; read-out: IC50 inhibition of lipid peroxidation (antioxidant potential)
Protocol: Data are means±SEM of triplicate experiments. One of the most well-known properties of the vitamin E components is their ability to prevent lipid peroxidation. See Traber et al. (2011) Free Radic Biol Med 51(5):1000-1013. Briefly, the antioxidant activity of DG-3 was evaluated in rat liver microsomes by measuring inhibition of lipid peroxidation after TBHP ([…]) treatment. Wistar rat liver microsomes (BD Biosciences) were diluted in phosphate buffer, 0.1 M (pH 7.4), at the final protein concentration of 1 mg/ml. The microsomes were treated with different concentrations of DG-3 or DT3 (diluted with DMSO) and incubated at 37° C. for 1 hour before inducing lipid peroxidation with 200 μM TBHP (DMSO) for 30 min.

[3] = tested on: H9c2 heart cardiomyocytes; test: Cellular bioenergetics measurements (oxygen consumption rate, XF96 Seahorse); type: cell-based, rat; details: for Effect of H2O2 treatment on OCR after pre-treatment: 5 μM overnight pre-treatment
Protocol: H9C2 heart cardiomyocytes were treated with 5 μM DT3 or 5 μM DG-3 or vehicle control (DMSO) overnight. Oxygen Consumption Rates (OCR) were measured and cellular bioenergetics profiles were determined using XF96 Seahorse Extracellular Flux Analyzer.
FIG. 6 is a graph showing the effects of hydrogen peroxide on the OCR of cardiomyocytes after the indicated treatments. H9C2 heart cardiomyocytes were exposed to 50 or 100 μM H2O2 for 4 h. Oxygen Consumption Rates (OCR) were measured and cellular bioenergetics profiles were determined using XF96 Seahorse Extracellular Flux Analyzer.
(§2) FIG. 7 is a graph showing the effects of 50 μM hydrogen peroxide on the OCR of cardiomyocytes after the indicated pre-treatment with DMSO (dimethylsulfoxide vehicle), DT3 or DG-3. Cellular bioenergetic profiles were determined using XF96 Seahorse Extracellular Flux Analyzer.
FIG. 8 is a graph showing the effects of 100 μM hydrogen peroxide on the OCR of cardiomyocytes after the indicated pre-treatment with DMSO (dimethylsulfoxide vehicle), DT3 or DG-3. Cellular bioenergetic profiles were determined using XF96 Seahorse Extracellular Flux Analyzer.
as §2, with “9” for “7”, “6 Gy ionizing radiation” for “50 μM hydrogen peroxide”, “vehicle).” for “vehicle),”, “Analyzer 1 h following radiation exposure.” for “Analyzer.”
Cellular oxygen consumption rates (OCR) were measured at 37° C. using an XF96 extracellular analyzer (Seahorse Bioscience) as previously described (Ferrick D A, Neilson A, and Beeson C. Advances in measuring cellular bioenergetics using extracellular flux. Drug Discov Today 2008; 13: 268-274). Briefly, 10,000 H9C2 cells per well were plated. The cells were treated with 5 μM DT3 or 5 μM DG-3 or vehicle control (DMSO) overnight. Cells were then exposed to 0, 50 or 100 μM H2O2 for 4 h or 6 Gy ionizing radiation (IR). The media in the wells were changed to unbuffered Dulbecco's Modified Eagle Medium (DMEM) supplemented with 4 mM […] and incubated in a non-CO2 incubator for 1 h at 37° C. Three baseline measurements were acquired before injection of mitochondrial inhibitors or uncouplers. Readings were taken after sequential addition of oligomycin (10 μM), FCCP (10 μM), and rotenone/antimycin A (10 μM). OCR was calculated by the Seahorse XF96 software and represents an average of 12-16 measurements.

[4] = tested on: H9C2 rat heart cardiomyocyte cells; test: Total antioxidant capacity (copper reducing equivalents) of cardiomyocytes; type: cell-based; details: 5 μM treatment
Excerpt: as §1

[5] = 5 μM treatment followed by H2O2 treatment

IC50 [2]: 2580 nM
Structure (SMILES): CC(C)=CCC/C(C)=C/CC/C(C)=C/CC[C@]1(C)CCc2cc(O)cc(C)c2O1 [DT3, δ-tocotrienol]
Morphological changes (cell damage) after H2O2 ([1]; 5 μM overnight pre-treatment, then 100 μM H2O2 for 4 h): damage is limited
Morphological changes (cell monolayer) after H2O2 ([1]; 5 μM overnight pre-treatment, then 200 μM H2O2 for 4 h): still maintain a monolayer with only a few rounded cells
Cell viability after oxidative insult via H2O2 [1, 5]: preserved
Effect of H2O2 treatment on OCR after pre-treatment ([3]; 50 μM H2O2 for 4 h (FIG. 7)): eliminated
Effect of H2O2 treatment on OCR after pre-treatment ([3]; 100 μM H2O2 for 4 h (FIG. 8)): significantly reduced
Oxygen consumption rate (OCR) compared to controls ([3]; 5 μM overnight, no H2O2 (FIG. 5)): modestly improved
Mitochondrial respiration after oxidative insult via H2O2 [3, 5]: preserved
Total antioxidant capacity (copper reducing equivalents) [4]: did not change
